According to patent US10414811B2, “Protease-resistant lipidated GLP-1 analogs” (MEDIMMUNE LIMITED, priority 2015, dated 2019):
Where two headings read alike, the source gives them in different places. Numbered stars: 1 amine (or outer) side, 2 acyl side, 3 side chain; on linkers, the order of the positions; unused ones are H or OH. Square brackets hold non-standard residues; d marks the D form. Side chains are listed from the residue outwards. Peptide text beside a SMILES is read from it. * marks the point of attachment. γGlu = O=C(O)[C@H](CCC(=O)[*:2])N[*:1]; Palmitoyl = CCCCCCCCCCCCCCCC(=O)*; αMeF = C[C@](N)(Cc1ccccc1)C(=O)O; αMeK = C[C@](N)(CCCCN)C(=O)O; Lauroyl = CCCCCCCCCCCC(=O)*; αMeS = C[C@](N)(CO)C(=O)O; AEEA = NCCOCCOCC(=O)O; Aib = CC(C)(N)C(=O)O

How the values were obtained:
Assay type in all cases: cell-based
[1] = molecular target: T1, human glucagon receptor (GCGR) (Homo sapiens, UniProt P47871); assay: cAMP assay, human GCGR cells
T1 construct: expressed in transfected cells
Method in brief: (§1)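 Peptide-stimulated cAMP measured by two-step HTRF after a 30 min room-temperature incubation with receptor-expressing cells (hGLP-1R, hGIPR at 1×10^5 cells/ml; hGCGR at 2×10^5 cells/ml). Duplicate dilutions; EC50 from 4-parameter logistic fit of % Delta F.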

[2] = molecular target: T2, human GLP-1 receptor (GLP-1R) (Homo sapiens, UniProt P43220); assay: cAMP assay, human GLP-1R cells
T2 construct: expressed in transfected cells
Method in brief: as §1

[3] = molecular target: T3, human glucose-dependent insulinotropic peptide receptor (GIPR) (Homo sapiens, UniProt P48546); assay: cAMP assay, human GIPR cells
T3 construct: expressed in transfected cells
T3 sequence (P48546 22-466): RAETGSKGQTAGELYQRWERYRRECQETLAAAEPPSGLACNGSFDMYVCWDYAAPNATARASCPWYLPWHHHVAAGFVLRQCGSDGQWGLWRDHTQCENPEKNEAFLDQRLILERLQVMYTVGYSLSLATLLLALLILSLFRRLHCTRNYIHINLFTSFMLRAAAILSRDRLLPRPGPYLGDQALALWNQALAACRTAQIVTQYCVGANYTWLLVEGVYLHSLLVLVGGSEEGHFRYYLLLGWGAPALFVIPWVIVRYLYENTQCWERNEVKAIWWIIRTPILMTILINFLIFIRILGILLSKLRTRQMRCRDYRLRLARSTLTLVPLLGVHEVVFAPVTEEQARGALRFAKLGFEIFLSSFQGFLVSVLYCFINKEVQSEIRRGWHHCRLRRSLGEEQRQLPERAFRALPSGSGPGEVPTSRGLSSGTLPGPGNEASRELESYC
Method in brief: as §1

GLP-1R (INS1e assay) = molecular target: T4, GLP-1R (INS1e assay) (Rattus norvegicus, UniProt P32301); assay: INS1e assay, cAMP activity at GLP-1R
T4 construct: endogenous in cells; host or cells: INS-1E cells
T4 sequence (P32301 22-463): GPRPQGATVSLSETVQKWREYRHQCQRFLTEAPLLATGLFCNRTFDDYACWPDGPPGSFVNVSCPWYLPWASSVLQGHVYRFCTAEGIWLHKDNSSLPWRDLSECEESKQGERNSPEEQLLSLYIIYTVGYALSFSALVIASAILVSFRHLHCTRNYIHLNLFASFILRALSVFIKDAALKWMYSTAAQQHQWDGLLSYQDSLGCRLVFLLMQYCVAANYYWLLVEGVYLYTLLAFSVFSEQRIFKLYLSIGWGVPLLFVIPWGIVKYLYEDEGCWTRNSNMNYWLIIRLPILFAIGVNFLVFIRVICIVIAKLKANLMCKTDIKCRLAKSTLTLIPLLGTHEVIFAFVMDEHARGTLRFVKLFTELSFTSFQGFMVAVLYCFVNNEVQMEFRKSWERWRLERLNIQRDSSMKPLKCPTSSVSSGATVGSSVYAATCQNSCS
Method in brief: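 It pairs cAMP-d2 acceptor with anti-cAMP cryptate donor, both prepared 1/20 in conjugate/lysis buffer, applied as a two-step protocol.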

[4] = cAMP assay, first determination (n1), read-out: Primary assay EC50 Gluc-R (n1)
[5] = cAMP assay, second determination (n2), read-out: Primary assay EC50 Gluc-R (n2)
[6] = cAMP assay, first determination (n1), read-out: Primary assay EC50 GLP-1R n1
[7] = cAMP assay, second determination (n2), read-out: Primary assay EC50 GLP-1R n2
[8] = mean of n1 and n2, read-out: Mean pM GLP-1R
[9] = cAMP assay, first determination (n1), read-out: Primary assay EC50 GIP-R (n1)
[10] = cAMP assay, second determination (n2), read-out: Primary assay EC50 GIP-R (n2)
[11] = mono-lipidated peptides, mean of n1 and n2, read-out: INS1e assay EC50 Mean pM GLP-1R
[12] = mono-lipidated peptides, replicate n1, read-out: INS1e assay EC50 GLP-1R n1
[13] = mono-lipidated peptides, replicate n2, read-out: INS1e assay EC50 GLP-1R n2

T2 sequence (P43220 24-463): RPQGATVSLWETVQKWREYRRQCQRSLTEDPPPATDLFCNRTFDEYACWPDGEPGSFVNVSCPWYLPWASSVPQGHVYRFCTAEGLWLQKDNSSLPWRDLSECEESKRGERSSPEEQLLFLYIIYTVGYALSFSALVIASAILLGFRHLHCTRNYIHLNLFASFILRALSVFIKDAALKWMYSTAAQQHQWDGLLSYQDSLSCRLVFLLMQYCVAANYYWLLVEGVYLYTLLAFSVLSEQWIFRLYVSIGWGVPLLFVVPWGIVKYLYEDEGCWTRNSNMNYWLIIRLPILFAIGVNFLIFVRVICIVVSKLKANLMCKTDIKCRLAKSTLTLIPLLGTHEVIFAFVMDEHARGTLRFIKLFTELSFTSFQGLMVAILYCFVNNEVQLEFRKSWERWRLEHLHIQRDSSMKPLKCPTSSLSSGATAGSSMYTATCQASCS
T1 sequence (P47871 26-477): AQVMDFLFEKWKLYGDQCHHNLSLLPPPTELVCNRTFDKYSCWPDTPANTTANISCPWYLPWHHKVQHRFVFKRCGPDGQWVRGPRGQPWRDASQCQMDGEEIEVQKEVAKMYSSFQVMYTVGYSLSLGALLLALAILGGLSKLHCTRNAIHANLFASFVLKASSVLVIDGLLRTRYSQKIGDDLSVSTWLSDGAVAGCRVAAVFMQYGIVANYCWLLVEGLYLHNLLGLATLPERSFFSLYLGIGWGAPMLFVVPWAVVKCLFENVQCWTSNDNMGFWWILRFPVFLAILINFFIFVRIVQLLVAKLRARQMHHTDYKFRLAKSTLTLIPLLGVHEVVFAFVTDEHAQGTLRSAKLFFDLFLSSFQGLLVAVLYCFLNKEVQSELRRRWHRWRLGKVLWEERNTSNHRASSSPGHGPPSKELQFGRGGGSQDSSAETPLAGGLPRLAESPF

CC[C@H](C)[C@H](NC(=O)[C@H](CCCCNC(=O)COCCOCCNC(=O)COCCOCCNC(=O)CC[C@H](NC(=O)CCCCCCCCCCCCCCCCC(=O)O)C(=O)O)NC(=O)[C@H](CCC(=O)O)NC(=O)[C@](C)(CCCCN)NC(=O)[C@H](C)NC(=O)[C@H](C)NC(=O)[C@H](CCC(=O)O)NC(=O)CNC(=O)[C@H](CCC(=O)O)NC(=O)[C@H](CC(C)C)NC(=O)[C@](C)(Cc1ccccc1)NC(=O)[C@H](CO)NC(=O)[C@](C)(CO)NC(=O)[C@@H](NC(=O)[C@H](CC(=O)O)NC(=O)[C@H](CO)NC(=O)[C@@H](NC(=O)[C@](C)(Cc1ccccc1)NC(=O)[C@H](CO)NC(=O)CNC(=O)[C@H](CCC(=O)O)NC(=O)C(C)(C)NC(=O)[C@@H](N)Cc1c[nH]cn1)[C@@H](C)O)C(C)C)C(=O)N[C@@H](C)C(=O)N[C@@](C)(Cc1ccccc1)C(=O)N[C@H](C(=O)N[C@H](C(=O)N[C@@](C)(CCCCN)C(=O)NCC(=O)NCC(N)=O)C(C)C)C(C)C [compound 107]
EC50 [1, 4]: ≥ 26 nM
EC50 [1, 5]: ≥ 25.6 nM
EC50 [2, 6]: 83 pM
EC50 [2, 7]: 70.5 pM
EC50 [2, 8]: 77 pM
EC50 [3, 9]: ≥ 26 nM
EC50 [3, 10]: ≥ 25.6 nM
EC50 (GLP-1R (INS1e assay); [11]): 8460 pM
EC50 (GLP-1R (INS1e assay); [12]): 5230 pM
EC50 (GLP-1R (INS1e assay); [13]): 11700 pM

CCCCCCCCCCCCCCCC(=O)N[C@@H](CCC(=O)NCCCC[C@H](NC(=O)[C@](C)(CCCCN)NC(=O)[C@@H](NC(=O)[C@@H](NC(=O)[C@](C)(Cc1ccccc1)NC(=O)[C@H](C)NC(=O)[C@@H](NC(=O)[C@](C)(Cc1ccccc1)NC(=O)[C@H](CCC(=O)O)NC(=O)[C@](C)(CCCCN)NC(=O)[C@H](C)NC(=O)[C@H](C)NC(=O)[C@H](CCC(=O)O)NC(=O)CNC(=O)[C@H](CCC(=O)O)NC(=O)[C@H](CC(C)C)NC(=O)[C@](C)(Cc1ccccc1)NC(=O)[C@H](CO)NC(=O)[C@](C)(CO)NC(=O)[C@@H](NC(=O)[C@H](CC(=O)O)NC(=O)[C@H](CO)NC(=O)[C@@H](NC(=O)[C@](C)(Cc1ccccc1)NC(=O)[C@H](CO)NC(=O)CNC(=O)[C@H](CCC(=O)O)NC(=O)C(C)(C)NC(=O)[C@@H](N)Cc1c[nH]cn1)[C@@H](C)O)C(C)C)[C@@H](C)CC)C(C)C)C(C)C)C(=O)NCC(N)=O)C(=O)O [compound 71] (H-H[Aib]EGS[αMeF]TSDV[αMeS]S[αMeF]LEGEAA[αMeK]E[αMeF]IA[αMeF]VV[αMeK]K([γGlu-Palmitoyl])G-NH2)
EC50 [1, 4]: ≥ 27 nM
EC50 [1, 5]: ≥ 27 nM
EC50 [2, 6]: 6.2 pM
EC50 [2, 7]: 8 pM
EC50 [2, 8]: 7.1 pM
EC50 [3, 9]: ≥ 27 nM
EC50 [3, 10]: ≥ 27 nM
EC50 (GLP-1R (INS1e assay); [11]): 723 pM
EC50 (GLP-1R (INS1e assay); [12]): 604 pM
EC50 (GLP-1R (INS1e assay); [13]): 841 pM

CCCCCCCCCCCC(=O)N[C@@H](CCC(=O)NCCOCCOCC(=O)NCCOCCOCC(=O)NCCCC[C@H](NC(=O)[C@H](C)NC(=O)[C@@H](NC(=O)[C@H](Cc1ccccc1)NC(=O)[C@H](CCC(=O)O)NC(=O)[C@](C)(CCCCN)NC(=O)[C@H](C)NC(=O)[C@H](C)NC(=O)[C@H](CCC(=O)O)NC(=O)[C@H](CCCCNC(=O)COCCOCCNC(=O)COCCOCCNC(=O)CC[C@H](NC(=O)CCCCCCCCCCC)C(=O)O)NC(=O)[C@H](CCC(=O)O)NC(=O)[C@H](CCCCNC(=O)COCCOCCNC(=O)COCCOCCNC(=O)CC[C@H](NC(=O)CCCCCCCCCCC)C(=O)O)NC(=O)[C@H](Cc1ccc(O)cc1)NC(=O)[C@H](CO)NC(=O)[C@](C)(CO)NC(=O)[C@@H](NC(=O)[C@H](CC(=O)O)NC(=O)[C@H](CO)NC(=O)[C@@H](NC(=O)[C@](C)(Cc1ccccc1)NC(=O)[C@H](CO)NC(=O)CNC(=O)[C@H](CCC(=O)O)NC(=O)C(C)(C)NC(=O)[C@@H](N)Cc1c[nH]cn1)[C@@H](C)O)C(C)C)[C@@H](C)CC)C(=O)N[C@H](C(=O)N[C@H](C(=O)N[C@@H](CCC(=O)O)C(=O)NCC(=O)NCC(N)=O)C(C)C)C(C)C)C(=O)O [compound 467] (H-H[Aib]EGS[αMeF]TSDV[αMeS]SYK([AEEA-AEEA-γGlu-Lauroyl])EK([AEEA-AEEA-γGlu-Lauroyl])EAA[αMeK]EFIAK([AEEA-AEEA-γGlu-Lauroyl])VVEGG-NH2; N-terminus assumed)
EC50 ([1]; tris-lipidated peptides, second replicate, read-out: Primary assay EC50 Gluc-R (n2)): 19.8 nM
EC50 ([2]; tris-lipidated peptides, mean of n1 and n2, read-out: Primary assay EC50 Mean pM GLP-1R): 55.4 pM
EC50 ([2]; tris-lipidated peptides, replicate n1, read-out: Primary assay EC50 GLP-1R n1): 49.3 pM
EC50 ([2]; tris-lipidated peptides, replicate n2, read-out: Primary assay EC50 GLP-1R n2): 61.5 pM
EC50 ([3]; tris-lipidated peptides, second replicate, read-out: Primary assay EC50 GIP-R (n2)): 19.8 nM
EC50 (GLP-1R (INS1e assay); tris-lipidated peptides, mean of n1 and n2, read-out: INS1e assay EC50 Mean pM GLP-1R): 8920 pM
EC50 (GLP-1R (INS1e assay); tris-lipidated peptides, replicate n1, read-out: INS1e assay EC50 GLP-1R n1): 9920 pM
EC50 (GLP-1R (INS1e assay); tris-lipidated peptides, replicate n2, read-out: INS1e assay EC50 GLP-1R n2): 7910 pM

CCCCCCCCCCCCCCCCCC(=O)NCCOCCOCC(=O)NCCOCCOCC(=O)NCCOCCOCC(=O)NCCCC[C@H](NC(=O)[C@H](C)NC(=O)[C@H](C)NC(=O)[C@H](CCC(=O)O)NC(=O)CNC(=O)[C@H](CCC(=O)O)NC(=O)[C@H](CC(C)C)NC(=O)[C@](C)(Cc1ccccc1)NC(=O)[C@H](CO)NC(=O)[C@](C)(CO)NC(=O)[C@@H](NC(=O)[C@H](CC(=O)O)NC(=O)[C@H](CO)NC(=O)[C@@H](NC(=O)[C@](C)(Cc1ccccc1)NC(=O)[C@H](CO)NC(=O)CNC(=O)[C@H](CCC(=O)O)NC(=O)C(C)(C)NC(=O)[C@@H](N)Cc1c[nH]cn1)[C@@H](C)O)C(C)C)C(=O)N[C@@H](CCC(=O)O)C(=O)N[C@@H](Cc1ccccc1)C(=O)N[C@H](C(=O)N[C@@H](C)C(=O)N[C@@](C)(Cc1ccccc1)C(=O)N[C@H](C(=O)N[C@H](C(=O)N[C@@](C)(CCCCN)C(=O)NCC(=O)NCC(N)=O)C(C)C)C(C)C)[C@@H](C)CC [compound 54]
EC50 [1, 4]: ≥ 26 nM
EC50 [1, 5]: ≥ 26 nM
EC50 [3, 9]: ≥ 26 nM
EC50 [3, 10]: ≥ 26 nM
EC50 (GLP-1R (INS1e assay); [11]): 6 pM
EC50 (GLP-1R (INS1e assay); [12]): 2.67 pM
EC50 (GLP-1R (INS1e assay); [13]): 8.37 pM

CC[C@H](C)[C@H](NC(=O)[C@](C)(Cc1ccccc1)NC(=O)[C@H](CCC(=O)O)NC(=O)[C@](C)(CCCCN)NC(=O)[C@H](C)NC(=O)[C@H](C)NC(=O)[C@H](CCC(=O)O)NC(=O)CNC(=O)[C@H](CCC(=O)O)NC(=O)[C@H](CC(C)C)NC(=O)[C@H](CCCCNC(=O)COCCOCCNC(=O)COCCOCCNC(=O)CC[C@H](NC(=O)CCCCCCCCCCCCCCCCC(=O)O)C(=O)O)NC(=O)[C@H](CO)NC(=O)[C@](C)(CO)NC(=O)[C@@H](NC(=O)[C@H](CC(=O)O)NC(=O)[C@H](CO)NC(=O)[C@@H](NC(=O)[C@](C)(Cc1ccccc1)NC(=O)[C@H](CO)NC(=O)CNC(=O)[C@H](CCC(=O)O)NC(=O)C(C)(C)NC(=O)[C@@H](N)Cc1c[nH]cn1)[C@@H](C)O)C(C)C)C(=O)N[C@@H](C)C(=O)N[C@@](C)(Cc1ccccc1)C(=O)N[C@H](C(=O)N[C@H](C(=O)N[C@@](C)(CCCCN)C(=O)NCC(=O)NCC(N)=O)C(C)C)C(C)C [compound 116]
EC50 [1, 4]: ≥ 26 nM
EC50 [1, 5]: ≥ 25.6 nM
EC50 [3, 9]: ≥ 26 nM
EC50 [3, 10]: ≥ 25.6 nM
EC50 (GLP-1R (INS1e assay); [11]): 1110 pM
EC50 (GLP-1R (INS1e assay); [12]): 1610 pM
EC50 (GLP-1R (INS1e assay); [13]): 610 pM
